The values that follow come from publication PMC9785946, “Bioorthogonal Chemistry Approach for the Theranostics of GRPR-Expressing Cancers” (Pharmaceutics, 2022).

How the values of series [1] were obtained:
The octanol–water partition coefficients (Po/w) of the radioconjugates (20 µL, typically 1 to 5 MBq) were determined by the “shake-flask” method, as previously described.

Series [2] has as its system PC3 cells. The series can be described thus: Cellular uptake, internalization and blocking assays in PC3 cells. The class given is cell-based, human. The note with it: 37 °C. As to the method:
The time-dependent accumulation of ^111In-conjugates in PC3 cells was evaluated according to a previously described procedure. Briefly, PC3 cells were incubated at 37 °C for 5 min to 4 h with about 7.4 kBq of the tested radioconjugates. To assess the surface binding, the cells were treated twice with glycine buffer (50 mM glycine-HCl/100 mM NaCl, pH 2.8). Then, the cells were lysed with NaOH 1 M (internalized radioconjugate). The activity in both cell surface-bound and internalized fractions was measured in a γ-counter and reported as a percentage of the total applied radioactivity. The total cellular uptake was calculated by the addition of the activities recovered from the surface binding and internalized fractions. Assays for each time point were performed in quadruplicate, and data were presented as average ± SD of typically three independent experiments.
To assess the specific GRPR-mediated cellular uptake and internalization of radioconjugates (receptor blocking studies), a similar study was performed in which cells were incubated with the [^111In]In-DOTA-Tz-TCO-PEG4-AR for 1, 2 and 4 h, with or without the GRPR agonist Tyr4-Bombesin (0.25 µg/0.5 mL/well).

Series [3] concerns PC3 xenografts-bearing mice. The series can be described thus: Biodistribution of 111In-radioconjugates/radiocomplex in PC3 xenografts-bearing mice. The format is in vivo, Balb/c-male nude mice. The text has this: Blood samples were taken by cardiac puncture at sacrifice.
The mark [4] stands for this setting: 15 min p.i., listed as [111In]In-DOTA-Tz.
The mark [5] stands for this setting: 1 h p.i., listed as [111In]In-DOTA-Tz.

Molecules are shown by their SMILES.

The molecule `CC(C)C[C@H](NC(=O)C[C@H](O)[C@H](CC(C)C)NC(=O)[C@H](Cc1c[nH]cn1)NC(=O)CNC(=O)[C@@H](NC(=O)[C@H](C)NC(=O)[C@H](Cc1c[nH]c2ccccc12)NC(=O)[C@H](CCC(N)=O)NC(=O)[C@@H](Cc1ccccc1)NC(=O)CN1CCC(NC(=O)OC2CCCc3c(cnnc3-c3ccc(CNC(=O)CCC(C(=O)O)N4CCN(CC(=O)O)CCN(CC(=O)O)CCN(CC(=O)O)CC4)cc3)CC2)CC1)C(C)C)C(N)=O` (stereo partly shown) [[^111In]In-DOTAGA-Tz-TCO-Pip-AR, metal not drawn] yielded a log partition coefficient (logP) in series [1] of -0.9. Also, in series [2], the “Distribution of cell-associated activity (surface-bound vs internalized)” value was “almost all cell-associated activity corresponded to the membrane-bound fraction”. Moreover, the Maximum cellular uptake result in series [2] (5 min to 4 h) is on record as “around 10 % of the total activity applied per million cells”.
For `O=C([O-])CN1CCN(CC(=O)[O-])CCN(CC(=O)NCc2ccc(-c3nncnn3)cc2)CCN(CC(=O)[O-])CC1.[111In+3]` [[^111In]In-DOTA-Tz], in series [3] (15 min p.i.), the Blood uptake was 2. 7 % I.D./g, the Bone uptake was 0. 8 % I.D./g, the Excretion is on record as 61. % I.D and the Heart uptake is given as 0. 9 % I.D./g. Moreover, in series [3] (15 min p.i.), the Intestine uptake is listed as 0. 4 % I.D./g, the Kidneys uptake was 4. 4 % I.D./g, the Liver uptake is 0. 9 % I.D./g and the Lungs uptake is on record as 1. 4 % I.D./g. For the same molecule, in series [3] (15 min p.i.), the Muscle uptake is 0. 8 % I.D./g, the Pancreas uptake is recorded as 0.42 ± 0.02 % I.D./g, the Spleen uptake was 0. 45 % I.D./g and the Stomach uptake is 0. 4 % I.D./g. In addition, the Tumor uptake in series [3] (15 min p.i.) turned out to be 2.46 ± 0.6 % I.D./g. Besides, in series [3] (setting [4]), the Pancreas uptake is listed as 0. 42 % I.D./g and the Tumor uptake is given as 2. 46 % I.D./g. In series [3] (1 h p.i.), the Blood uptake is 0. 4 % I.D./g, the Bone uptake is reported as 0. 2 % I.D./g, the Excretion is 88 % I.D and the Heart uptake is recorded as 0. 17 % I.D./g. Also, in series [3] (1 h p.i.), the Intestine uptake is given as 0. 29 % I.D./g, the Kidneys uptake is 2. 1 % I.D./g, the Liver uptake was 0. 4 % I.D./g and the Lungs uptake is listed as 0. 38 % I.D./g. In series [3] (1 h p.i.), the Muscle uptake is reported as 0. 1 % I.D./g, the Pancreas uptake is on record as 0.09 ± 0.06 % I.D./g, the Spleen uptake is listed as 0. 14 % I.D./g and the Stomach uptake was 0. 17 % I.D./g. Besides, in series [3] (1 h p.i.), the Tumor uptake came out at 0.5 ± 0.2 % I.D./g. Moreover, in series [3] (setting [5]), the Pancreas uptake is given as 0. 09 % I.D./g and the Tumor uptake is 0. 5 % I.D./g. In series [3] (24 h p.i.), the Blood uptake is on record as 0. 03 % I.D./g, the Bone uptake is listed as 0. 04 % I.D./g, the Excretion is reported as 97. % I.D and the Heart uptake is reported as 0. 02 % I.D./g. Further, in series [3] (24 h p.i.), the Intestine uptake is 0. 09 % I.D./g, the Kidneys uptake is listed as 0. 87 % I.D./g, the Liver uptake is given as 0. 12 % I.D./g and the Lungs uptake was 0. 07 % I.D./g. In addition, in series [3] (24 h p.i.), the Muscle uptake is 0. 021 % I.D./g, the Pancreas uptake was 0. 03 % I.D./g, the Spleen uptake was 0. 08 % I.D./g and the Stomach uptake is 0. 03 % I.D./g. Moreover, the Tumor uptake in series [3] (24 h p.i.) was 0. 13 % I.D./g.

Usually logP stands for the decadic logarithm of the partition coefficient of the neutral form, usually between octanol and water. The low end stands for lower lipophilicity, the high end for higher lipophilicity.
